# System: not given
# Experiment: not given
# Design: method as in doi:10.1016/j.jtice.2010.05.008
# Conditions: isolated from the stem of SD; cited from earlier work
row,SMILES,DPPH radical scavenging activity compared to positive control vitamin C
1,COc1cc([C@H]2OC[C@H]3[C@@H]2CO[C@H]3c2cc(OC)c(O)c(OC)c2)cc(OC)c1O [(+)-epi-syringaresinol],superior
2,COc1cc([C@H]2OC[C@H]3[C@@H]2CO[C@@H]3c2cc(OC)c(O)c(OC)c2)cc(OC)c1O [(+)-syringaresinol],superior

# System: type 2 diabetic albino rats
# Experiment: not given
# Design: method as in PMID 28917550
# Conditions: cited from earlier work
row,SMILES,blood glucose levels
1,COc1ccc(Cl)cc1C(=O)NCCc1ccc(S(=O)(=O)NC(=O)NC2CCCCC2)cc1 [glibenclamide],significantly lowered

# Molecular target: α-glucosidase
# Experiment: α-glucosidase inhibition assay (PNPG method)
# Assay type: biochemical, yeast
# Conditions: acarbose positive control, three repetitions, read-out: IC50 ± SD of α-glucosidase inhibition, S. dulcificum components
# From the text: Ultrapure water was obtained using the UP series ultrapure water system (Chengdu, China). […] HPLC-grade formic acid was purchased from Shanghai Aladdin Biochemical Technology Co., Ltd. (Shanghai, China). HPLC-grade methanol and acetonitrile were purchased from Merck (Darmstadt, Germany). Di-methyl sulfoxide (DMSO) was purchased from Tianjin Dama Chemical Reagent Factory (Tianjin, China). Disodium hydrogen phosphate was purchased from Guangdong Guanghua Technology Co., Ltd. (Shantou, China). Other analytical-grade chemicals and reagents, such as sodium chloride and anhydrous ethanol, were obtained from Sichuan Xilong Scientific Co., Ltd. (Chengdu, China).
# Soak the crushed stems, leaves, and fruits of S. dulcificum in methanol for 24 h, then extract the chemical components using ethyl acetate. After that, concentrate the extract using a rotary vacuum evaporator, repeating the extraction three times to obtain the crude extracts, which are then prepared at concentrations of 0.5, 1, 8, and 16 mg/mL, respectively, for subsequent inhibition experiments.
# The assay was conducted following a previously described method, and made some minor adjustments. Briefly, 0.1 M phosphate-buffered saline (PBS, pH 6.9) was used to prepare standard sample solutions of different concentrations, α-glucosidase (1 U/mL), and p-nitrophenyl-α-D-glucopyranoside (α-PNPG, 5 mM). A mixture of the sample (50 μL) and α-glucosidase (50 μL) was incubated at 37 °C for 10 min, followed by the addition of 50 μL of PNPG and further incubation at 37 °C for 20 min. Finally, 100 μL of Na2CO3 (0.1 M) was added to terminate the reaction after incubating at 37 °C for 10 min. […] The experiment was set up with three repetitions, and the IC50 values were determined.
row,IC50 [mM],SMILES
1,0.07 ± 0.02,C=C(C)[C@@H]1CC[C@]2(C(=O)O)CC[C@]3(C)[C@H](CC[C@@H]4[C@@]5(C)CC[C@H](O)C(C)(C)[C@@H]5CC[C@]43C)[C@@H]12 [Betulinic acid]
2,2.12 ± 0.44,C[C@H]1[C@H](C)CC[C@]2(C(=O)O)CC[C@]3(C)C(=CC[C@@H]4[C@@]5(C)C[C@@H](O)[C@H](O)C(C)(C)[C@@H]5CC[C@]43C)[C@H]12 [Corosolic acid]
3,4.18 ± 1.09,COC(=O)c1cc(O)c(O)c(O)c1 [Methyl gallate]
4,55.1 ± 1.8,CC(C)=CCC/C(C)=C/CC/C(C)=C/CC/C=C(\C)CC/C=C(\C)CCC=C(C)C [Squalene]

row,SMILES,IC50 [mM]
1,CC[C@H](/C=C/[C@@H](C)[C@H]1CC[C@H]2[C@@H]3CC=C4C[C@@H](O)CC[C@]4(C)[C@H]3CC[C@]12C)C(C)C [Stigmasterol],2.11 ± 0.24
2,COc1cc(/C=C/CO)cc(OC)c1O[C@@H]1O[C@H](CO)[C@@H](O)[C@H](O)[C@H]1O [Syringin],5.4 ± 1.2

# Source: paper PMC12299813, “Combined Metabolomics and Network Pharmacology to Reveal Anti-Diabetic Mechanisms and Potential Pharmacological Components of Synsepalum dulcificum” (Plants, 2025)
